Series [1] is described as follows: Intrinsic clearance in rat hepatocytes assessed per million cells. To be noted: read-out: CLH. The series is classed as ADME, cell-based, Hepatocyte.
The nature of series [2]: (§1) Inhibition of replicating Mycobacterium tuberculosis H37Rv NDH assessed as cell growth inhibition after 7 days by MABA method. To be noted: 168 h. A general note: Resazurin is reduced to fluorescent resorufin, in cell work by metabolically active cells.
Series [3] in a line: Solubility of compound at pH 7.4. The series is classed as physicochemical. To be noted: buffer.
A short description of series [4]: Apparent permeability across apical to basolateral side in human Caco2 cells at 5 uM measured up to 180 mins by LC-MS/MS analysis. The series is classed as ADME, cell-based. To be noted: Caco-2. Background: Caco-2 monolayers are a common model of the intestinal barrier.
Series [5] is described as follows: Intrinsic clearance in human microsomes. The class given is ADME, Microsome. The settings on record: read-out: CLH.
The nature of series [6]: Protein binding in human plasma at 1 uM after 18 hrs by equilibrium dialysis. The settings on record: read-out: PPB (converted). The series is classed as ADME, cell-free. (Equilibrium dialysis compares concentrations on both sides of a semipermeable membrane.)
Series [7] can be described thus: Half life in rat plasma at 1 uM measured up to 3 hrs by LC-MS/MS analysis. The class given is ADME, cell-free.
A short description of series [8]: Half life in human plasma at 1 uM measured up to 3 hrs by LC-MS/MS analysis. The series is classed as ADME, cell-free.
Series [9] is described as follows: Aqueous solubility of compound. The class given is physicochemical. The settings on record: buffer.
A short description of series [10]: Solubility of compound in Middlebrook 7H9 broth media containing 10% albumin-dextrose-catalase solution. The series is classed as physicochemical.
Series [11] in a line: Lipophilicity, logD of compound at pH 7.4. To be noted: buffer.
Series [12] can be described thus: Solubility of compound at pH 1. The class given is physicochemical. To be noted: buffer.
Series [13] has as its system Mycobacterium tuberculosis H37Rv. Described as §1.
The test system of another series is HepG2. The experiment in a line: Cytotoxicity against human HepG2 cells after 24 hrs in presence of glucose by MTT assay. The class given is cell-based. The settings on record: hepg2, 24 h.
Series [14] can be described thus: Metabolic stability in mouse liver microsomes assessed as half life for metabolic turnover at 0.1 to 10 uM preincubated for 60 mins in presence of NADPH measured up to 60 mins by mass spectroscopic analysis. The class given is ADME, microsome.
The nature of series [15]: Metabolic stability in human liver microsomes assessed as half life for metabolic turnover at 0.1 to 10 uM preincubated for 60 mins in presence of NADPH measured up to 60 mins by mass spectroscopic analysis. The series is classed as ADME, microsome.
The nature of series [16]: Metabolic stability in rat liver microsomes assessed as half life for metabolic turnover at 0.1 to 10 uM preincubated for 60 mins in presence of NADPH measured up to 60 mins by mass spectroscopic analysis. The class given is ADME, microsome.
Series [17] is described as follows: Inhibition of Mycobacterium tuberculosis NDH by HTS-based assay.
The subject of series [18] is Mycobacterium tuberculosis. Nature of the series: Growth inhibition of replicating Mycobacterium tuberculosis H37Rv at 5 uM after 7 days by MABA method relative to control. The class given is functional. To be noted: 168 h, read-out: GI.
Series [19] in a line: Drug level in Sprague-Dawley rat bile treated with 2-(4-(3,3-Difluoropyrrolidin-1-yl)phenyl)-5,7-difluoro-3-methylquinolin-4-yl acetate at 50 mg/kg, po via gavage up to 9 hrs by HPLC analysis. The class given is ADME, organism-based. The settings on record: in vivo.
A short description of series [20]: Drug level in Sprague-Dawley rat urine treated with 2-(4-(3,3-Difluoropyrrolidin-1-yl)phenyl)-5,7-difluoro-3-methylquinolin-4-yl acetate at 50 mg/kg, po via gavage up to 9 hrs by HPLC analysis. The class given is ADME, organism-based. The settings on record: in vivo.
Series [21] is described as follows: Retention time of compound by HPLC anlaysis.

Converted amounts (≈) assume the structure as drawn.

For `Cc1c(-c2ccc(N3CC[C@H](F)C3)cc2)[nH]c2cc(F)cc(F)c2c1=O`, the hepatocyte CLint in series [1] worked out at 150 µL/min/1e6 cells. Also, the IC50 (in general, the concentration that inhibits the measured activity by half) in [2] amounted to 1.8 µM. The solubility (usually the concentration that dissolves in the medium under given conditions) was less than 1 µg/mL in series [3], 1 µM (≈ 0.358 µg/mL) in series [9], 2.5 µg/mL (≈ 6.98 µM) in series [10] and less than 1 µg/mL in series [12]. Moreover, in series [4], the Papp A→B (commonly the apparent permeability from the apical to the basolateral side of a cell layer) at 3 h, 5 µM stood at 155 nm/s. For the same compound, the microsomal CLint in series [5] was determined as 197 µL/min/mg. In series [6], the fraction unbound at 18 h, 1 µM is 0.0103 to 0.014. Further, the half-life at 1 µM in series [7] and in series [8] was more than 180 min throughout. Besides, in series [11], the logD (as a rule, the decadic logarithm of the distribution of all forms, ionised or not, between an organic phase and buffer at a given pH) was 3.6.
Regarding `Cc1c(-c2ccc(N3CC[C@@H](F)C3)cc2)[nH]c2cc(F)cc(F)c2c1=O`, in series [1], the hepatocyte CLint stood at 118 µL/min/1e6 cells. Besides, in series [2], the IC50 was in the range of 0.23 to 0.231 µM. In series [13], the IC90 – broadly, the concentration needed for an effect of 90% – was 0.5 µM. For the same compound, in the series on HepG2, the Activity was found to be 150.6 µM. Moreover, the half-life (in general, the time in which the quantity being followed falls by half) at up to 10 µM is 4.4 min in series [14], 10.2 min in [15] and 10.6 min in series [16]. The microsomal CLint in series [5] came to 175 µL/min/mg. Besides, the fraction unbound at 18 h, 1 µM in series [6] was 0.009. Moreover, in series [9], the solubility came to 0.9 µM (≈ 0.323 µg/mL). Besides, the pH-dependent lipophilicity (logD) in series [11] came out at 3.8.
For the compound `COc1ccc2c(=O)c(C)c(-c3ccc(N4CCCCC4)cc3)[nH]c2c1`, the IC50 in [2] and in [17] was 0.73 µM in each case. Further, in series [18], the inhibition of growth at 5 µM is more than 50%.
Consider `Cc1c(-c2ccc(N3CC(O)C(F)(F)C3)cc2)nc2cc(F)cc(F)c2c1O` (stereo not given), for which the Drug metabolism entry in series [19] and in series [20] was “Metabolite_Detected” throughout. For the same compound, the Retention time in series [21] was found to be 10.1 min.
Turning to `Cc1c(-c2ccc(N3CCC[C@H](C)C3)cc2)[nH]c2cc(F)cc(F)c2c1=O`, the hepatocyte CLint in series [1] is 91.2 µL/min/1e6 cells. Besides, in series [2], the 50% inhibitory concentration (IC50) was 0.4 to 0.47 µM. The IC90 in series [13] was 0.66 µM. The Activity in the series on HepG2 is 85.54 µM. Also, the half-life at up to 10 µM was 7.65 min in series [14], 8.54 min in [15] and 5.72 min in series [16]. Also, in series [5], the microsomal CLint is more than 300 µL/min/mg. In addition, the fraction unbound at 18 h, 1 µM in [6] was 0.007. The compound also displayed a solubility in series [9] of less than 0.3 µM. Further, the pH-dependent lipophilicity (logD) in series [11] was more than 3.2.
As for `OCc1c(-c2ccc(N3CC(O)C(F)(F)C3)cc2)nc2cc(F)cc(F)c2c1O` (stereo not given), the Drug metabolism entry in [19] and in series [20] was “Metabolite_Detected” in each case. The Retention time in series [21] worked out at 8.6 min.
With `COc1cc2[nH]c(-c3ccc(N4CCCCC4)cc3)c(C)c(=O)c2cc1F`, the hepatocyte CLint in [1] is 231 µL/min/1e6 cells. In [2], the IC50 worked out at 0.52 µM. Moreover, in series [5], the microsomal CLint is more than 300 µL/min/mg. The fraction unbound at 18 h, 1 µM in series [6] was 0.012. In [9], the concentration in solution (solubility) came to 2 µM (≈ 0.733 µg/mL). For the same compound, in series [11], the log distribution coefficient (logD) came to 3.9.
Take `Cc1c(-c2ccc(-n3cccc3)cc2)[nH]c2cc(F)cc(F)c2c1=O`: in series [2], the 50% inhibitory concentration (IC50) fell in the range of 0.432 to 0.44 µM. Also, the 90% effect concentration (IC90) in series [13] was 0.69 µM. Further, the Activity in the series with HepG2 stood at 141 µM. Also, the solubility amounted to 3.6 µg/mL (≈ 10.7 µM) in series [3], 61 µg/mL (≈ 181 µM) in [10] and 5.1 µg/mL (≈ 15.2 µM) in series [12]. The half-life at up to 10 µM worked out at 20.7 min in series [14], 10.2 min in [15] and 30.1 min in [16]. The Papp A→B at 3 h, 5 µM in series [4] came to 310 nm/s. Further, in series [6], the fraction unbound at 18 h, 1 µM is 0.039. Besides, the half-life at 1 µM in series [7] and in series [8] was more than 180 min throughout.
On to `Cc1c(-c2ccc(N3CCCC(F)C3)cc2)[nH]c2cc(F)cc(F)c2c1=O` (stereo not given), for which the IC50 in [2] lay within 0.3 to 0.31 µM. Moreover, the 90% effect concentration (IC90) in series [13] was 0.56 µM. Also, the Activity with HepG2 was 188.1 µM. The solubility was less than 1 µg/mL in series [3], 10 µg/mL (≈ 26.9 µM) in series [10] and more than 150 µg/mL in series [12]. The half-life at up to 10 µM in series [14] turned out to be 6.8 min; in series [15] it was 7.8 min; in [16], 10.1 min. The apical-to-basolateral permeability (Papp A→B) at 3 h, 5 µM in series [4] came to 229 nm/s. Also, the fraction unbound at 18 h, 1 µM in [6] is 0.0155. Further, the half-life at 1 µM in [7] and in series [8] was more than 180 min in each case.

Source of the values: ChEMBL document CHEMBL4049411, “Rational Design, Synthesis, and Biological Evaluation of Heterocyclic Quinolones Targeting the Respiratory Chain of Mycobacterium tuberculosis” (J Med Chem, 2017).
